Data published in patent publication US20060135435A1, “Agent that retards transformation of hormone-dependent cancer to non-hormone-dependent cancer” (priority 1998, published 2006).

melting point: 108 to 109 °C
SMILES: C(=C\c1nc(COc2ccc(CCCn3cncn3)cc2)co1)/c1ccccc1 [Reference Example 3, 1-[3-[4-[2-[(E)-2-phenylethenyl]-4-oxazolylmethoxy]phenyl]propyl]-1,2,4-triazole]
